Assay results taken from ChEMBL document CHEMBL5247669, “Synthesis, modeling, and biological evaluation of anti-tubulin indole-substituted furanones” (Bioorg Med Chem Lett, 2023).
pEC50, pIC50: −log10 of the molar value. Each block holds one compound with its values, some of them ahead of it. Active and inactive are the calls of the source. The rule behind the calls is not given here.

Assays:
U-937 = assay: Anticancer activity against human U-937 cells assessed as reduction in cell viability by MTT assay; type: functional, cell-based
PC-3 = assay: Growth inhibition of human PC-3 cells by MTT assay; type: functional
KM12 = assay: Growth inhibition of human KM12 cells by MTT assay; type: functional
HL-60 = assay: Growth inhibition of human HL-60 cells by MTT assay; type: functional
786-0 = assay: Growth inhibition of human 786-0 cells by MTT assay; type: functional
SR = assay: Growth inhibition of human SR cells by MTT assay; type: functional
A498 = assay: Growth inhibition of human A498 cells by MTT assay; type: functional
NCI-H322M = assay: Growth inhibition of human NCI-H322M cells by MTT assay; type: functional
SNB-19 = assay: Growth inhibition of human SNB-19 cells by MTT assay; type: functional
DU-145 = assay: Growth inhibition of human DU-145 cells by MTT assay; type: functional
Tubulin (Homo sapiens) = Tubulin (Homo sapiens) (UniProt P68371+Q9H4B7+P0DPH7+P68366+Q13509+Q71U36+P04350+Q3ZCM7+P07437+P68363+Q9BQE3+Q6PEY2+Q13885+Q9BVA1+Q9BUF5); assay: Inhibition of tubulin polymerization (unknown origin) at 10 uM; type: protein-complex assay
MDA-MB-435 = assay: Growth inhibition of human MDA-MB-435 cells by MTT assay; type: functional
UO-31 = assay: Growth inhibition of human UO-31 cells by MTT assay; type: functional
OVCAR-4 = assay: Growth inhibition of human OVCAR-4 cells by MTT assay; type: functional
NCI-H23 = assay: Growth inhibition of human NCI-H23 cells by MTT assay; type: functional
OVCAR-8 = assay: Growth inhibition of human OVCAR-8 cells by MTT assay; type: functional
T47D = assay: Growth inhibition of human T47D cells by MTT assay; type: functional
HOP-62 = assay: Growth inhibition of human HOP-62 cells by MTT assay; type: functional
A549 = assay: Growth inhibition of human A549 cells by MTT assay; type: functional
MCF7 = assay: Growth inhibition of human MCF7 cells by MTT assay; type: functional
NCI-H460 = assay: Growth inhibition of human NCI-H460 cells by MTT assay; type: functional
RXF 393 = assay: Growth inhibition of human RXF 393 cells by MTT assay; type: functional
IGROV-1 = assay: Growth inhibition of human IGROV-1 cells by MTT assay; type: functional, cell-based
MOLT-4 = assay: Growth inhibition of human MOLT-4 cells by MTT assay; type: functional
OVCAR-3 = assay: Growth inhibition of human OVCAR-3 cells by MTT assay; type: functional
M14 = assay: Growth inhibition of human M14 cells by MTT assay; type: functional
SK-MEL-5 = assay: Growth inhibition of human SK-MEL-5 cells by MTT assay; type: functional
TK-10 = assay: Growth inhibition of human TK-10 cells by MTT assay; type: functional
SK-MEL-28 = assay: Growth inhibition of human SK-MEL-28 cells by MTT assay; type: functional
UACC-257 = assay: Growth inhibition of human UACC-257 cells by MTT assay; type: functional
HCT-116 = assay: Growth inhibition of human HCT-116 cells by MTT assay; type: functional
Malme-3M = assay: Growth inhibition of human Malme-3M cells by MTT assay; type: functional
NCI/ADR-RES = assay: Growth inhibition of human NCI/ADR-RES cells by MTT assay; type: functional
HOP-92 = assay: Growth inhibition of human HOP-92 cells by MTT assay; type: functional
SW-620 = assay: Growth inhibition of human SW-620 cells by MTT assay; type: functional
COLO 205 = assay: Growth inhibition of human COLO 205 cells by MTT assay; type: functional
CAKI-1 = assay: Growth inhibition of human CAKI-1 cells by MTT assay; type: functional
RPMI-8226 = assay: Growth inhibition of human RPMI-8226 cells by MTT assay; type: functional
BT-549 = assay: Growth inhibition of human BT-549 cells by MTT assay; type: functional
U-251 = assay: Growth inhibition of human U-251 cells by MTT assay; type: functional
CCRF-CEM = assay: Growth inhibition of human CCRF-CEM cells by MTT assay; type: functional
SF-295 = assay: Growth inhibition of human SF-295 cells by MTT assay; type: functional
ACHN = assay: Growth inhibition of human ACHN cells by MTT assay; type: functional
K562 = assay: Growth inhibition of human K562 cells by MTT assay; type: functional
SNB-75 = assay: Growth inhibition of human SNB-75 cells by MTT assay; type: functional
SK-OV-3 = assay: Growth inhibition of human SK-OV-3 cells by MTT assay; type: functional
SN12C = assay: Growth inhibition of human SN12C cells by MTT assay; type: functional
HT-29 = assay: Growth inhibition of human HT-29 cells by MTT assay; type: functional
SK-MEL-2 = assay: Growth inhibition of human SK-MEL-2 cells by MTT assay; type: functional
SF-539 = assay: Growth inhibition of human SF-539 cells by MTT assay; type: functional
LOX IMVI = assay: Growth inhibition of human LOX IMVI cells by MTT assay; type: functional
NCI-H226 = assay: Growth inhibition of human NCI-H226 cells by MTT assay; type: functional
Hs-578T = assay: Growth inhibition of human Hs-578T cells by MTT assay; type: functional
HCT-15 = assay: Growth inhibition of human HCT-15 cells by MTT assay; type: functional
UACC-62 = assay: Growth inhibition of human UACC-62 cells by MTT assay; type: functional
MDA-MB-231 = assay: Growth inhibition of human MDA-MB-231 cells by MTT assay; type: functional
HCC 2998 = assay: Growth inhibition of human HCC 2998 cells by MTT assay; type: functional
NCI-H522 = assay: Growth inhibition of human NCI-H522 cells by MTT assay; type: functional
OVCAR-5 = assay: Growth inhibition of human OVCAR-5 cells by MTT assay; type: functional
MDA-MB-468 = assay: Growth inhibition of human MDA-MB-468 cells by MTT assay; type: functional
SF-268 = assay: Growth inhibition of human SF-268 cells by MTT assay; type: functional
EKVX = assay: Growth inhibition of human EKVX cells by MTT assay; type: functional

Structure (SMILES): COc1ccc(OC)c(C2=C(c3cn(C)c4ccccc34)COC2=O)c1
pEC50 (U-937): 5.49

Structure (SMILES): Cc1cccc(C2=C(c3cn(C)c4ccccc34)COC2=O)c1
pEC50 (U-937): < 5.00

Structure (SMILES): COc1ccc(C2=C(c3cn(C)c4ccccc34)COC2=O)cc1OC
pEC50 (U-937): < 5.00

Structure (SMILES): COc1ccc(C2=C(c3cn(C)c4ccccc34)COC2=O)cc1
pEC50 (U-937): < 5.00

Structure (SMILES): COc1ccccc1C1=C(c2cn(C)c3ccccc23)COC1=O
pEC50 (U-937): < 5.00

Second part, led by results:

GI50 (PC-3): 0.102 µM
GI50 (HL-60): 0.043 µM
GI50 (786-0): 0.316 µM
GI50 (NCI-H322M): 0.407 µM
GI50 (DU-145): 0.209 µM
inhibition (Tubulin (Homo sapiens)): Active
GI50 (MDA-MB-435): 0.025 µM
GI50 (OVCAR-4): 1.26 µM
GI50 (NCI-H23): 0.234 µM
GI50 (OVCAR-8): 0.339 µM
GI50 (T47D): 0.06 µM
GI50 (A549): 0.1 µM
GI50 (MCF7): 0.028 µM
GI50 (NCI-H460): 0.054 µM
GI50 (MOLT-4): 0.055 µM
GI50 (OVCAR-3): 0.036 µM
GI50 (SK-MEL-5): 0.078 µM
GI50 (SK-MEL-28): 0.427 µM
GI50 (HCT-116): 0.04 µM
GI50 (SW-620): 0.045 µM
GI50 (COLO 205): 0.065 µM
GI50 (RPMI-8226): 0.11 µM
GI50 (BT-549): 0.062 µM
GI50 (U-251): 0.072 µM
GI50 (CCRF-CEM): 0.059 µM
GI50 (ACHN): 0.537 µM
GI50 (K562): 0.037 µM
GI50 (SK-OV-3): 0.269 µM
GI50 (HT-29): 0.038 µM
GI50 (SK-MEL-2): 0.229 µM
GI50 (NCI-H226): 0.692 µM
GI50 (HCT-15): 0.043 µM
GI50 (MDA-MB-231): 0.339 µM
GI50 (HCC 2998): 0.219 µM
pEC50 (U-937): 6.22
GI50 (NCI-H522): 0.049 µM
GI50 (OVCAR-5): 0.479 µM
GI50 (MDA-MB-468): 0.032 µM
Structure (SMILES): COc1cc(C2=C(c3cn(C)c4ccccc34)COC2=O)cc(OC)c1OC
GI50 (KM12): 0.065 µM
GI50 (SR): 0.022 µM
GI50 (A498): 0.017 µM
GI50 (SNB-19): 0.158 µM
GI50 (UO-31): 0.186 µM
GI50 (HOP-62): 0.123 µM
GI50 (RXF 393): 0.132 µM
pIC50 (IGROV-1): 7.12
GI50 (M14): 0.037 µM
GI50 (TK-10): 0.933 µM
GI50 (UACC-257): 1.62 µM
GI50 (Malme-3M): 0.195 µM
GI50 (NCI/ADR-RES): 0.047 µM
GI50 (HOP-92): 0.251 µM
GI50 (CAKI-1): 0.052 µM
GI50 (SF-295): 0.04 µM
GI50 (SNB-75): 0.044 µM
GI50 (SN12C): 0.282 µM
GI50 (SF-539): 0.105 µM
GI50 (LOX IMVI): 0.066 µM
GI50 (Hs-578T): 0.158 µM
GI50 (UACC-62): 0.054 µM
GI50 (SF-268): 0.813 µM
GI50 (EKVX): 0.151 µM

pEC50 (U-937): < 5.00
Structure (SMILES): Cc1ccc(C2=C(c3cn(C)c4ccccc34)COC2=O)cc1

pEC50 (U-937): < 5.00
Structure (SMILES): Cn1cc(C2=C(c3ccccc3)C(=O)OC2)c2ccccc21

pEC50 (U-937): < 5.00
Structure (SMILES): COc1cccc(C2=C(c3cn(C)c4ccccc34)COC2=O)c1
